According to US20040058984A1, “Stabilization of radiopharmaceutical compositions using hydrophilic thioethers and hydrophilic 6-hydroxy chromans” (priority 2003, published 2004):

Columns and labels:
[1] = HPLC RCP of 99mTc-depreotide with hydrophilic thioether additives (Example 8); assay type: physicochemical; settings: for effect on 99mTc-labelled peptide radiolabelling yield or stability: 99mTc-depreotide; for 3.5 hr RCP / 6.5 hr RCP / Initial RCP: 99mTc-depreotide kit, additive 4 mg, heated prep
Description: Each hydrophilic thioether was dissolved in water made up at 40 mg/mL and adjusted to pH 7 with HCl or NaOH. […] To the control vials were added 100 μL water.

[2] = HPLC RCP of 99mTc-depreotide kits with L-methionine (Example 2); settings: formulated kits stored under normal conditions (≦−10° C.)
Description: Lyophilized kit vials were prepared containing depreotide, L-methionine (Met), and other components as described in Table 3. All formulations were adjusted to pH 7.4 prior to lyophilization.
The lyophilized kits were radiolabelled with ^99mTc by reconstitution with 1.0 mL technetium ^99mTc sodium pertechnetate (Technelite®) containing approximately 50 mCi ^99mTc and heating in a boiling water bath for 10 minutes. Some of the formulations were also radiolabelled in a room temperature preparation (allowed to stand at rom temperature 30 minutes following reconstitution).

[3] = HPLC RCP of 99mTc-labelled benzodiazepinedione derivative kits with L-methionine (Example 4); assay type: physicochemical; settings: formulated kits
Description: L-methionine was tested for its ability to stabilize a ^99mTc-labelled glycoprotein IIb/IIIa receptor-binding benzodiazepinedione derivative 1-[(carboxyglycyl-glycyl-glycyl-cysteinamide)methyl]-4-(2-carboxyethyl)-7-[(4-amidinophenyl)methyl]-3,4-dihydro-1H-1,4-benzodiazepine-2,5-dione trifluoroacetate, having the structure. [drawing 15]
All formulations were adjusted to pH 7.4 prior to lyophilization.
The lyophilized kits were radiolabelled with ^99mTc by reconstitution with 1.0 mL technetium ^99mTc sodium pertechnetate (Technelite®) containing approximately 50 mCi ^99mTc and heating in a boiling water bath for 10 minutes.

[4] = HPLC RCP of 99mTc-labelled glycoprotein IIb/IIIa receptor-binding peptide with L-methionine (Example 5); assay type: physicochemical
Description: Lyophilized kit vials were prepared containing the peptide (50 μg), sodium glucoheptonate dihydrate (10 mg), stannous chloride dihydrate (50 μg), and edetate disodium dihydrate (100 μg). The formulation was adjusted to pH 7.4 prior to lyophilization.
The lyophilized kits were radiolabelled with ^99mTc in the presence and absence of L-methionine. […] Both vials were then reconstituted with 1.0 mL technetium ^99mTc sodium pertechnetate (Technelite®) containing approximately 50 mCi ^99mTc and allowed to incubate for 30 minutes at room temperature.

[5] = HPLC RCP of 99mTc-labelled bisamine bisthiol non-peptide chelator with L-methionine (Example 7); assay type: physicochemical
Excerpt: The non-peptide chelator was radiolabelled with ^99mTc in the presence and absence of L-methionine using the placebo vial heated preparation procedure as described in Example 6.

| Structure (SMILES) | 3.5 hr RCP [1] | 6.5 hr RCP [1] | Initial RCP [1] | effect on 99mTc-labelled peptide radiolabelling yield or stability [1] | effect on radiolabelling yield and stability of 99mTc-depreotide [2] | effect on radiolabelling yield and stability of the 99mTc-labelled benzodiazepinedione derivative [3] | effect on radiolabelling yield and stability of the 99mTc-peptide [4] | effect on radiolabelling yield and stability of a 99mTc-labelled non-peptide chelator [5] |
| --- | --- | --- | --- | --- | --- | --- | --- | --- |
| C[S+]([O-])CC[C@H](N)C(=O)O (stereo partly shown) [Methionine sulfoxide, reference compound] | – | – | – | no effect | – | – | – | – |
| CSCC[C@H](N)C(=O)O [L-methionine] | 90.4 | 89.3 | 95.0 | – | increases the radiolabelling yield and the stability | increases the radiolabelling yield and the stability | increases the radiolabelling yield and the stability | increases the radiolabelling yield and the stability |
| CSCCC=O [3-(methylthio)propionaldehyde, reference compound] | – | – | – | no effect | – | – | – | – |
| CS(=O)(=O)CC[C@H](N)C(=O)O [methionine sulfone, reference compound] | – | – | – | no effect | – | – | – | – |

The next lines start with results.

| 3.5 hr RCP [1] | 6.5 hr RCP [1] | Initial RCP [1] | Structure (SMILES) | effect on 99mTc-labelled peptide radiolabelling yield or stability [1] | effect on radiolabelling yield and stability of 99mTc-depreotide [2] | effect on radiolabelling yield and stability of the 99mTc-labelled benzodiazepinedione derivative [3] | effect on radiolabelling yield and stability of the 99mTc-peptide [4] | effect on radiolabelling yield and stability of a 99mTc-labelled non-peptide chelator [5] |
| --- | --- | --- | --- | --- | --- | --- | --- | --- |
| 93.9 | 90.7 | 94.1 | CSCC[C@H](N)CO [Methioninol, methioninol] | increase the radiolabelling yield and the stability | – | – | – | – |
| 94.2 | 93.3 | 92.8 | CCSCCN [2-(Ethylthio)ethylamine] | increase the radiolabelling yield and the stability | – | – | – | – |
| 84.0 | 80.9 | 89.1 | CSCC(O)CO (stereo not shown) [3-Methylthio-1,2-propanediol, 3-methylthio-1,2-propanediol] | increase the radiolabelling yield and the stability | – | – | – | – |
